Reference: article PMC7206119, “RIP1 inhibition blocks inflammatory diseases but not tumor growth or metastases” (Cell Death and Differentiation, 2019)

What was measured:
Test in all cases: biochemical
Parameters in all cases: DiscoverX kinase panel, active-site competition binding (KINOMEscan type), percent of control at one concentration
Conditions in all cases: competition binding, percent of control
ACVR1 = ACVR1 (Homo sapiens, UniProt Q04771)
STK16 = STK16 (Homo sapiens, UniProt O75716)
[1] = target: T1, ABL1(H396P)-nonphosphorylated (Homo sapiens, UniProt P00519, H396P)
T1 construct: nonphosphorylated

WNK3 = WNK3 (Homo sapiens, UniProt Q9BYP7)
OSR1 = target: T2, OSR1 (Homo sapiens, UniProt O95747)
T2 construct: gene OXSR1
T2 sequence (O95747 whole entry): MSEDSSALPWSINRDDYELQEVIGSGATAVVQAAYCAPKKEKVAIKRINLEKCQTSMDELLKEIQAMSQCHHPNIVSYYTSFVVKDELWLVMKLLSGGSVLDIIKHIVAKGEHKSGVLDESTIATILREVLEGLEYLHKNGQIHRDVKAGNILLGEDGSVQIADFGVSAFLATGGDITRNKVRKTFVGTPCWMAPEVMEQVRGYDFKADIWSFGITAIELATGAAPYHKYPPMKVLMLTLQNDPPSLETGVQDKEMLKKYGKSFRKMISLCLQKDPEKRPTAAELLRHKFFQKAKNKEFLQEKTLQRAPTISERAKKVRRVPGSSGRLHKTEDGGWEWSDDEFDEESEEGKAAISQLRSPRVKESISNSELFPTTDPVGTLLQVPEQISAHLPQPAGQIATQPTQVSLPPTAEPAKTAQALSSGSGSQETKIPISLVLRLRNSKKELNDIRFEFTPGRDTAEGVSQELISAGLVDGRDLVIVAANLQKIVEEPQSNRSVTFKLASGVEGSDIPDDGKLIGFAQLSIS

IRAK3 = IRAK3 (Homo sapiens, UniProt Q9Y616)
DYRK1A = DYRK1A (Homo sapiens, UniProt Q13627)
CIT = CIT (Homo sapiens, UniProt O14578)
WNK1 = WNK1 (Homo sapiens, UniProt Q9H4A3)
WNK1, sequence (Q9H4A3 whole entry): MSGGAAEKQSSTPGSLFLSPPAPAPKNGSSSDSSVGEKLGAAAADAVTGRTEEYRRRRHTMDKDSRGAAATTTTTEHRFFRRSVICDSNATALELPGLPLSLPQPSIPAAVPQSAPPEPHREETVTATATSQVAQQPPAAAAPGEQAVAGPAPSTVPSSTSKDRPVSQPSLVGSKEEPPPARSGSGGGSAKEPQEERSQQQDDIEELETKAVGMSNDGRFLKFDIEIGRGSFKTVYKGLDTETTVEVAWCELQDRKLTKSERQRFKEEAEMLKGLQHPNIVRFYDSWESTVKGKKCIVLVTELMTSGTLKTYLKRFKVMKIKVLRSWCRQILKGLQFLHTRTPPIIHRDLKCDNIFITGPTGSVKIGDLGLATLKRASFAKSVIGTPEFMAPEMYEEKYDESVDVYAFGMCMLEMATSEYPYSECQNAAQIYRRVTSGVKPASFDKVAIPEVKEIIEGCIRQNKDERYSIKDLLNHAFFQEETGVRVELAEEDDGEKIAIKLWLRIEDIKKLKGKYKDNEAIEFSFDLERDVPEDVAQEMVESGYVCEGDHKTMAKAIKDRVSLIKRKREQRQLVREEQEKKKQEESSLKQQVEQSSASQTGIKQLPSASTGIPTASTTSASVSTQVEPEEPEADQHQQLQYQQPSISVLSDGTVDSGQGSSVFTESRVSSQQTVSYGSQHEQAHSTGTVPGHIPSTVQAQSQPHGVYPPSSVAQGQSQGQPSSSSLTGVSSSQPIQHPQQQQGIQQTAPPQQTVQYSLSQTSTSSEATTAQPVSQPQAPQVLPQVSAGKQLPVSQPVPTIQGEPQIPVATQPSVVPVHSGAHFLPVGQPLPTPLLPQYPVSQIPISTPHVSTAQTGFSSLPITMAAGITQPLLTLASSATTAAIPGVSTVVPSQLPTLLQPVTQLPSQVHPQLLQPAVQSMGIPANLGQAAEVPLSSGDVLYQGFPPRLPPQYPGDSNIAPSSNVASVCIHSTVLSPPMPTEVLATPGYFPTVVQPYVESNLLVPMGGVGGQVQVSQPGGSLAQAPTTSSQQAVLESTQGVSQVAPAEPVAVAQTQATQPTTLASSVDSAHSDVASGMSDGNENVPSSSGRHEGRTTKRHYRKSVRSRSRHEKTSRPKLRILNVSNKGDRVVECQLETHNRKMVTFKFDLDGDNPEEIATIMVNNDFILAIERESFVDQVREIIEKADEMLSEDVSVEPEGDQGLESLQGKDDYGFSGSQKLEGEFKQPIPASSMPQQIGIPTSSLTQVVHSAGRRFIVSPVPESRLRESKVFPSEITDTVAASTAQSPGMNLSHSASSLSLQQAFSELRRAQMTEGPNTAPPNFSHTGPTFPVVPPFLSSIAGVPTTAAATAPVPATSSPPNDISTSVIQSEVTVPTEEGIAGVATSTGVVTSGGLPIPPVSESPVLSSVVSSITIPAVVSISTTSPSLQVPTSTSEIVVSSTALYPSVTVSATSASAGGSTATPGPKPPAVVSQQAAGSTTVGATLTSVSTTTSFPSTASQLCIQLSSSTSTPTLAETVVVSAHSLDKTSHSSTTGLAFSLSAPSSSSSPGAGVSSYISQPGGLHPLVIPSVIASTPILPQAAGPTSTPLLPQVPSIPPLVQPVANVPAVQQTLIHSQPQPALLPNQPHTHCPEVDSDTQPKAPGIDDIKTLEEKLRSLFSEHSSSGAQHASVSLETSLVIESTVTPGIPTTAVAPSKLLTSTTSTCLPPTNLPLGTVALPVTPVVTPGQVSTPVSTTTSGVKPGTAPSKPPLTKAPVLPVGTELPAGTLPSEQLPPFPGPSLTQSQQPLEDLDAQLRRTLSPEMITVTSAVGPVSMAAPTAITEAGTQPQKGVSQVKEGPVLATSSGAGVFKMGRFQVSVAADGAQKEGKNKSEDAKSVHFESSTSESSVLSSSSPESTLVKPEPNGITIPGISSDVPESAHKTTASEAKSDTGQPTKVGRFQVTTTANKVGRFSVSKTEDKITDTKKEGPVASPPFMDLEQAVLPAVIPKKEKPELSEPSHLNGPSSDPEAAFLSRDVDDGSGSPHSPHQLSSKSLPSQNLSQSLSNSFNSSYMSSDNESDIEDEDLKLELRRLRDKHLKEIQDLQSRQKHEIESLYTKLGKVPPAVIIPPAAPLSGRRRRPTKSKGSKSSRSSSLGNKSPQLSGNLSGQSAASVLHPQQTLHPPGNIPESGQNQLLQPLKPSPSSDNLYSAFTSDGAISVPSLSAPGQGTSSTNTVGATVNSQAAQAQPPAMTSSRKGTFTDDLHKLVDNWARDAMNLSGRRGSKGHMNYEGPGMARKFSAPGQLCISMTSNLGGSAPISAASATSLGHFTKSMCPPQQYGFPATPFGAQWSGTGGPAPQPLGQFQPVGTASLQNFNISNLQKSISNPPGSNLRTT

BIKE = target: T3, BIKE (Homo sapiens, UniProt Q9NSY1)
T3 construct: gene BMP2K

EPHB6 = EPHB6 (Homo sapiens, UniProt O15197)
PAK6 = PAK6 (Homo sapiens, UniProt Q9NQU5)
FGFR3 = FGFR3 (Homo sapiens, UniProt P22607)
PRKCE = PRKCE (Homo sapiens, UniProt Q02156)
DAPK2 = DAPK2 (Homo sapiens, UniProt Q9UIK4)
CASK = CASK (Homo sapiens, UniProt O14936)
MKNK1 = MKNK1 (Homo sapiens, UniProt Q9BUB5)
[2] = target: T4, RSK2(Kin.Dom.1-N-terminal) (Homo sapiens, UniProt P51812)
T4 construct: gene RPS6KA3; Kin.Dom.1-N-terminal

ERK4 = target: T5, ERK4 (Homo sapiens, UniProt P31152)
T5 construct: gene MAPK4
T5 sequence (P31152 whole entry): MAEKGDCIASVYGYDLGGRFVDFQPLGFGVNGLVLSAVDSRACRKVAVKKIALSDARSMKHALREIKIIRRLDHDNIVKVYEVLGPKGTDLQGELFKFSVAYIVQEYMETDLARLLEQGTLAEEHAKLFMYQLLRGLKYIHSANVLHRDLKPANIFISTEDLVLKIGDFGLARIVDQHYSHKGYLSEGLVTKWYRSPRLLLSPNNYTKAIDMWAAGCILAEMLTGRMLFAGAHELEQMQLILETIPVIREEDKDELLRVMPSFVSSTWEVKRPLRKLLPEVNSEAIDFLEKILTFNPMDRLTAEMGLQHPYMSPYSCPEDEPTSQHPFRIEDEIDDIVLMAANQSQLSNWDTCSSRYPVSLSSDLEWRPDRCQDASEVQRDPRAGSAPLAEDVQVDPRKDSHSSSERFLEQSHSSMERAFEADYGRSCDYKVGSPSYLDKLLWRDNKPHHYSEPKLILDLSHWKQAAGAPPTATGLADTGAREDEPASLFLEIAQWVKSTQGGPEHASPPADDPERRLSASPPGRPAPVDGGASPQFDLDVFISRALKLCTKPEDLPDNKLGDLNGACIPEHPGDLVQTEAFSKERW

LRRK2 = LRRK2 (Homo sapiens, UniProt Q5S007)
MERTK = MERTK (Homo sapiens, UniProt Q12866)
MERTK, sequence (Q12866 whole entry): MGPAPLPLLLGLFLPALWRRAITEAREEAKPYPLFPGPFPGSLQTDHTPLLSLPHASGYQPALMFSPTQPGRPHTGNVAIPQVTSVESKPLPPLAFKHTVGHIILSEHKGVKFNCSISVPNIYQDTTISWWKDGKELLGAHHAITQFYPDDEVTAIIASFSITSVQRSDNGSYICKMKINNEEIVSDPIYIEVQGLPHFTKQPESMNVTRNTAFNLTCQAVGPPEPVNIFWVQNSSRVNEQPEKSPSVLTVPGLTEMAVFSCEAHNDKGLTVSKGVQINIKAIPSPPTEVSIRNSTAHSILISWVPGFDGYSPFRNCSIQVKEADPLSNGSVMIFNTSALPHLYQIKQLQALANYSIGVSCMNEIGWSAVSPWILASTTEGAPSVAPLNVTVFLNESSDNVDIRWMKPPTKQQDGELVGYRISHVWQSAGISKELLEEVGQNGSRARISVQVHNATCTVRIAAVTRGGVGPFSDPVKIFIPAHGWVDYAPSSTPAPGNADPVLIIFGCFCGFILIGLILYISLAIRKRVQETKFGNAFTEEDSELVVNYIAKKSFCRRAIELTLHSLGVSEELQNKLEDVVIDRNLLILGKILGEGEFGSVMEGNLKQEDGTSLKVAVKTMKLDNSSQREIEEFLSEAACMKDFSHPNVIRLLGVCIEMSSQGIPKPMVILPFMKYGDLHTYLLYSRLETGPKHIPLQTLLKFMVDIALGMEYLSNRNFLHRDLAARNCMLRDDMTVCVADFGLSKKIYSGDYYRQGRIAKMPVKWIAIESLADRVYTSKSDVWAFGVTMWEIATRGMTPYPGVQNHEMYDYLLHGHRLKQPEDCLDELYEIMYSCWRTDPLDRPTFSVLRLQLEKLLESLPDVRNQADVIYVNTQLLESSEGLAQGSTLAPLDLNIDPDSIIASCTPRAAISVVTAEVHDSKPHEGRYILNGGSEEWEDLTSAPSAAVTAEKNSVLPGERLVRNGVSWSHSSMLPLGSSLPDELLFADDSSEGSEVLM

STK16, sequence (O75716 whole entry): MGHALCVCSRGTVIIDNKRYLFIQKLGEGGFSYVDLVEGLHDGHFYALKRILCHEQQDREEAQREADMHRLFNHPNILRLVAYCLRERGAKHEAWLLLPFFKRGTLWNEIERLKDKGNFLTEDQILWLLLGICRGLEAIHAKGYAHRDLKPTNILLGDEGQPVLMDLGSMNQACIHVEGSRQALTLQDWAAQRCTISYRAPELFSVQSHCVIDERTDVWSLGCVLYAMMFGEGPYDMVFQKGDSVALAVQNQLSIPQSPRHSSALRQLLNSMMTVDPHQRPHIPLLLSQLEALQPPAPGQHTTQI

COc1cc2c(cn1)N(C)C(=O)[C@@H](NC(=O)c1nc3n(n1)[C@H](c1ccccc1)CC3)CC2 [GNE684, (S)-N-((S)-7-methoxy-1-methyl-2-oxo-2,3,4,5-tetrahydro-1H-pyrido[3,4-b]azepin-3-yl)-5-phenyl-6,7-dihydro-5H-pyrrolo[1,2-b][1,2,4]triazole-2-carboxamide]
remaining binding at 10 µM (ACVR1): 100%
remaining binding at 10 µM (STK16): 100%
remaining binding at 10 µM [1]: 69%
remaining binding at 10 µM (WNK3): 100%
remaining binding at 10 µM (OSR1): 93%
remaining binding at 10 µM (IRAK3): 100%
remaining binding at 10 µM (DYRK1A): 79%
remaining binding at 10 µM (CIT): 100%
remaining binding at 10 µM (WNK1): 100%
remaining binding at 10 µM (BIKE): 100%
remaining binding at 10 µM (EPHB6): 100%
remaining binding at 10 µM (PAK6): 100%
remaining binding at 10 µM (FGFR3): 100%
remaining binding at 10 µM (PRKCE): 88%
remaining binding at 10 µM (DAPK2): 74%
remaining binding at 10 µM (CASK): 72%
remaining binding at 10 µM (MKNK1): 100%
remaining binding at 10 µM [2]: 65%
remaining binding at 10 µM (ERK4): 96%
remaining binding at 10 µM (LRRK2): 91%
remaining binding at 10 µM (MERTK): 90%
